Test results published in publication PMC11881559 (Antimicrobial Agents and Chemotherapy, 2025).

Assay: Tolerability and safety assessment (AEs/ADRs, CTCAE 5.0)
Type: in vivo, human
Protocol: Safety and tolerability assessments were conducted for all participants who received at least one dose of RAY1216, either alone or in combination with ritonavir, throughout the study. The safety of all participants was evaluated on the basis of clinical symptoms, vital signs, 12-lead ECG, laboratory tests, physical examinations, and the evaluation of adverse events (AEs). All AEs were documented and graded according to the Common Terminology Criteria for Adverse Events (CTCAE, ver. 5.0). The grading scale was as follows: grade 1 (mild), grade 2 (moderate), grade 3 (severe), grade 4 (life threatening), and grade 5 (death).

[1] = Food effect, 800 mg, Fast (N = 12)
[2] = Food effect, 800 mg, Fed (N = 12)

With `O=C(NC1CCCC1)C(=O)[C@H](C[C@@H]1CCNC1=O)NC(=O)[C@@H]1[C@H]2CCC[C@H]2CN1C(=O)[C@@H](NC(=O)C(F)(F)F)C1CCCCC1` [RAY1216, leritrelvir] the “participants who experienced at least one adverse event (AE)” value (37 of all 88 participants (RAY1216 or placebo)) was 42%, the “ADR, n (%)” value [1] was 2 (16.7) n (%) and the “AE, n (%)” value [1] was 3 (25.0) n (%). For the same compound, the “ALT elevated (ADR)” value [1] was 0 n (%), the “AST elevated (ADR)” value [1] was 0 n (%) and the “Anemia (ADR)” value [1] was 0 n (%). For the same compound, the “Bilirubin elevated (ADR)” value [1] was 0 n (%), the “Diarrhea (ADR)” value [1] was 0 n (%) and the “Fatigue (ADR)” value [1] was 0 n (%). The “Grade 2 ADRs” value [1] was 1 (8.3) n (%), the “Grade ≥3 AEs” value [1] was 0 n (%) and the “Hypertriglyceridemia (ADR)” value [1] was 0 n (%). The “Hyperuricemia (ADR)” value [1] was 0 n (%), the “Leukopenia (ADR)” value [1] was 1 (8.3) n (%) and the “Nausea (ADR)” value [1] was 0 n (%). For the same compound, the “Neutrophil decreased (ADR)” value [1] was 1 (8.3) n (%), the “Palpitations (ADR)” value [1] was 0 n (%) and the “Serum creatinine elevated (ADR)” value [1] was 0 n (%). The “ADR, n (%)” value [2] was 4 (33.3) n (%), the “AE, n (%)” value [2] was 5 (41.7) n (%) and the “ALT elevated (ADR)” value [2] was 0 n (%). The “AST elevated (ADR)” value [2] was 0 n (%), the “Anemia (ADR)” value [2] was 0 n (%) and the “Bilirubin elevated (ADR)” value [2] was 0 n (%). For the same compound, the “Diarrhea (ADR)” value [2] was 0 n (%), the “Fatigue (ADR)” value [2] was 0 n (%) and the “Grade 2 ADRs” value [2] was 1 (8.3) n (%). The “Grade ≥3 AEs” value [2] was 0 n (%), the “Hypertriglyceridemia (ADR)” value [2] was 1 (8.3) n (%) and the “Hyperuricemia (ADR)” value [2] was 0 n (%). The “Leukopenia (ADR)” value [2] was 0 n (%), the “Nausea (ADR)” value [2] was 0 n (%) and the “Neutrophil decreased (ADR)” value [2] was 0 n (%). For the same compound, the “Palpitations (ADR)” value [2] was 0 n (%), the “Serum creatinine elevated (ADR)” value [2] was 2 (16.7) n (%) and the “participants reporting at least one ADR” value (MAD study with or without ritonavir, 9 out of 32 participants) was 28.1%. For the same compound, the “ADR, n (%)” value (MAD, 400 mg TID (N = 6)) was 2 (33.3) n (%), the “AE, n (%)” value (MAD, 400 mg TID (N = 6)) was 2 (33.3) n (%) and the “ALT elevated (ADR)” value (MAD, 400 mg TID (N = 6)) was 0 n (%). The “AST elevated (ADR)” value (MAD, 400 mg TID (N = 6)) was 0 n (%), the “Anemia (ADR)” value (MAD, 400 mg TID (N = 6)) was 0 n (%) and the “Bilirubin elevated (ADR)” value (MAD, 400 mg TID (N = 6)) was 0 n (%). For the same compound, the “Diarrhea (ADR)” value (MAD, 400 mg TID (N = 6)) was 0 n (%), the “Fatigue (ADR)” value (MAD, 400 mg TID (N = 6)) was 0 n (%) and the “Grade 2 ADRs” value (MAD, 400 mg TID (N = 6)) was 0 n (%). The “Grade ≥3 AEs” value (MAD, 400 mg TID (N = 6)) was 0 n (%), the “Hypertriglyceridemia (ADR)” value (MAD, 400 mg TID (N = 6)) was 1 (16.7) n (%) and the “Hyperuricemia (ADR)” value (MAD, 400 mg TID (N = 6)) was 0 n (%). The “Leukopenia (ADR)” value (MAD, 400 mg TID (N = 6)) was 0 n (%), the “Nausea (ADR)” value (MAD, 400 mg TID (N = 6)) was 0 n (%) and the “Neutrophil decreased (ADR)” value (MAD, 400 mg TID (N = 6)) was 0 n (%). For the same compound, the “Palpitations (ADR)” value (MAD, 400 mg TID (N = 6)) was 0 n (%), the “Serum creatinine elevated (ADR)” value (MAD, 400 mg TID (N = 6)) was 0 n (%) and the “participants reporting at least one ADR” value (MAD, 400 mg TID group, two participants) was 33.3%. The “participants reporting at least one ADR” value (SAD, 200 mg cohort, two participants) was 33.3%, the “ADR, n (%)” value (SAD, 400 mg (N = 6)) was 2 (33.3) n (%) and the “AE, n (%)” value (SAD, 400 mg (N = 6)) was 2 (33.3) n (%). The “ALT elevated (ADR)” value (SAD, 400 mg (N = 6)) was 0 n (%), the “AST elevated (ADR)” value (SAD, 400 mg (N = 6)) was 0 n (%) and the “Anemia (ADR)” value (SAD, 400 mg (N = 6)) was 0 n (%). For the same compound, the “Bilirubin elevated (ADR)” value (SAD, 400 mg (N = 6)) was 1 (16.7) n (%), the “Diarrhea (ADR)” value (SAD, 400 mg (N = 6)) was 0 n (%) and the “Fatigue (ADR)” value (SAD, 400 mg (N = 6)) was 0 n (%). For the same compound, the “Grade 2 ADRs” value (SAD, 400 mg (N = 6)) was 0 n (%), the “Grade ≥3 AEs” value (SAD, 400 mg (N = 6)) was 0 n (%) and the “Hypertriglyceridemia (ADR)” value (SAD, 400 mg (N = 6)) was 0 n (%). The “Hyperuricemia (ADR)” value (SAD, 400 mg (N = 6)) was 0 n (%), the “Leukopenia (ADR)” value (SAD, 400 mg (N = 6)) was 0 n (%) and the “Nausea (ADR)” value (SAD, 400 mg (N = 6)) was 0 n (%). For the same compound, the “Neutrophil decreased (ADR)” value (SAD, 400 mg (N = 6)) was 0 n (%), the “Palpitations (ADR)” value (SAD, 400 mg (N = 6)) was 0 n (%) and the “Serum creatinine elevated (ADR)” value (SAD, 400 mg (N = 6)) was 1 (16.7) n (%). For the same compound, the “participants reporting at least one ADR” value (SAD, 400 mg cohort, two participants) was 33.3%, the “ADR, n (%)” value (SAD, 800 mg (N = 6)) was 0 n (%) and the “AE, n (%)” value (SAD, 800 mg (N = 6)) was 1 (16.7) n (%). The “ALT elevated (ADR)” value (SAD, 800 mg (N = 6)) was 0 n (%), the “AST elevated (ADR)” value (SAD, 800 mg (N = 6)) was 0 n (%) and the “Anemia (ADR)” value (SAD, 800 mg (N = 6)) was 0 n (%). The “Bilirubin elevated (ADR)” value (SAD, 800 mg (N = 6)) was 0 n (%), the “Diarrhea (ADR)” value (SAD, 800 mg (N = 6)) was 0 n (%) and the “Fatigue (ADR)” value (SAD, 800 mg (N = 6)) was 0 n (%). The “Grade 2 ADRs” value (SAD, 800 mg (N = 6)) was 0 n (%), the “Grade ≥3 AEs” value (SAD, 800 mg (N = 6)) was 0 n (%) and the “Hypertriglyceridemia (ADR)” value (SAD, 800 mg (N = 6)) was 0 n (%). The “Hyperuricemia (ADR)” value (SAD, 800 mg (N = 6)) was 0 n (%), the “Leukopenia (ADR)” value (SAD, 800 mg (N = 6)) was 0 n (%) and the “Nausea (ADR)” value (SAD, 800 mg (N = 6)) was 0 n (%). The “Neutrophil decreased (ADR)” value (SAD, 800 mg (N = 6)) was 0 n (%), the “Palpitations (ADR)” value (SAD, 800 mg (N = 6)) was 0 n (%) and the “Serum creatinine elevated (ADR)” value (SAD, 800 mg (N = 6)) was 0 n (%). The “ADR, n (%)” value (SAD, 1,600 mg (N = 6)) was 2 (33.3) n (%), the “AE, n (%)” value (SAD, 1,600 mg (N = 6)) was 2 (33.3) n (%) and the “ALT elevated (ADR)” value (SAD, 1,600 mg (N = 6)) was 0 n (%). For the same compound, the “AST elevated (ADR)” value (SAD, 1,600 mg (N = 6)) was 0 n (%), the “Anemia (ADR)” value (SAD, 1,600 mg (N = 6)) was 0 n (%) and the “Bilirubin elevated (ADR)” value (SAD, 1,600 mg (N = 6)) was 1 (16.7) n (%). The “Diarrhea (ADR)” value (SAD, 1,600 mg (N = 6)) was 0 n (%), the “Fatigue (ADR)” value (SAD, 1,600 mg (N = 6)) was 0 n (%) and the “Grade 2 ADRs” value (SAD, 1,600 mg (N = 6)) was 0 (0.0) n (%). The “Grade ≥3 AEs” value (SAD, 1,600 mg (N = 6)) was 0 n (%), the “Hypertriglyceridemia (ADR)” value (SAD, 1,600 mg (N = 6)) was 1 (16.7) n (%) and the “Hyperuricemia (ADR)” value (SAD, 1,600 mg (N = 6)) was 1 (16.7) n (%). For the same compound, the “Leukopenia (ADR)” value (SAD, 1,600 mg (N = 6)) was 0 n (%), the “Nausea (ADR)” value (SAD, 1,600 mg (N = 6)) was 0 n (%) and the “Neutrophil decreased (ADR)” value (SAD, 1,600 mg (N = 6)) was 0 n (%). The “Palpitations (ADR)” value (SAD, 1,600 mg (N = 6)) was 0 n (%), the “Serum creatinine elevated (ADR)” value (SAD, 1,600 mg (N = 6)) was 0 n (%) and the “participants reporting at least one ADR” value (SAD, 1,600 mg cohort, two participants) was 33.3%. The “participants reporting at least one ADR” value (SAD, 6 out of 32 participants) was 18.8%, the “ADR, n (%)” value (SAD/DDI, 200 mg (N = 6)) was 2 (33.3) n (%) and the “AE, n (%)” value (SAD/DDI, 200 mg (N = 6)) was 2 (33.3) n (%). For the same compound, the “ALT elevated (ADR)” value (SAD/DDI, 200 mg (N = 6)) was 0 n (%), the “AST elevated (ADR)” value (SAD/DDI, 200 mg (N = 6)) was 0 n (%) and the “Anemia (ADR)” value (SAD/DDI, 200 mg (N = 6)) was 0 n (%). The “Bilirubin elevated (ADR)” value (SAD/DDI, 200 mg (N = 6)) was 0 n (%), the “Diarrhea (ADR)” value (SAD/DDI, 200 mg (N = 6)) was 0 n (%) and the “Fatigue (ADR)” value (SAD/DDI, 200 mg (N = 6)) was 0 n (%). For the same compound, the “Grade 2 ADRs” value (SAD/DDI, 200 mg (N = 6)) was 1 (16.7) n (%), the “Grade ≥3 AEs” value (SAD/DDI, 200 mg (N = 6)) was 0 n (%) and the “Hypertriglyceridemia (ADR)” value (SAD/DDI, 200 mg (N = 6)) was 2 (33.3) n (%). The “Hyperuricemia (ADR)” value (SAD/DDI, 200 mg (N = 6)) was 0 n (%), the “Leukopenia (ADR)” value (SAD/DDI, 200 mg (N = 6)) was 0 n (%) and the “Nausea (ADR)” value (SAD/DDI, 200 mg (N = 6)) was 0 n (%). The “Neutrophil decreased (ADR)” value (SAD/DDI, 200 mg (N = 6)) was 0 n (%), the “Palpitations (ADR)” value (SAD/DDI, 200 mg (N = 6)) was 0 n (%) and the “Serum creatinine elevated (ADR)” value (SAD/DDI, 200 mg (N = 6)) was 0 n (%). For the same compound, the “grade 3 or above AEs, withdrawal due to AEs, SAEs” value (all cohorts) was “No grade 3 or above AEs, participant withdrawal due to AEs, or SAEs occurred”, the “participants reporting at least one ADR” value (food-effect study, RAY1216 alone, 5 out of 12 participants) was 41.7% and the “participants reporting at least one ADR” value (food-effect study, RAY1216 alone, after meals, 4 out of 12) was 33.3%. For the same compound, the “participants reporting at least one ADR” value (food-effect study, RAY1216 alone, fasting, 2 out of 12) was 16.7%.
